Target: T1, CRTH2 (Homo sapiens, UniProt Q9Y5Y4)
T1 construct: expressed in transfected cells; host or cells: CHO cells
T1 sequence (Q9Y5Y4 1-395): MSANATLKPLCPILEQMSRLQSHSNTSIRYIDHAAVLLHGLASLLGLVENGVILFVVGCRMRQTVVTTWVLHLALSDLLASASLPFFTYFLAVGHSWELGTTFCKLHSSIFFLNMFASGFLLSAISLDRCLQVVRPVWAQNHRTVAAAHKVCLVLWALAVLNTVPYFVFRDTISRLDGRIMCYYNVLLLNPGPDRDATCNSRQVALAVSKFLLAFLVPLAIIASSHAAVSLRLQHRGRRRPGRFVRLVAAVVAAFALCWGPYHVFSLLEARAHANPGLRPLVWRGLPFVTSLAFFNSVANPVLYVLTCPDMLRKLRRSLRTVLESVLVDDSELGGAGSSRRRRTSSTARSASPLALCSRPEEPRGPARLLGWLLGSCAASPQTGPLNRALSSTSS
Assay: FRET based competitive immunoassay (cAMP) in CRTH2 expressing CHO cells
Assay type: cell-based
Conditions: CRTH2 expressing CHO cells incubated with forskolin and PGD2; Eu3+ cryptate-labeled anti-cAMP and d2-labeled cAMP
Procedure: FRET Assay: To evaluate potency compounds were tested in a FRET based competitive immunoassay in which CRTH2 expressing CHO cells were incubated in the presence of forskolin and PGD2 along with Eu3+ cryptate-labeled anti-cAMP and d2-labeled cAMP.

SMILES	IC50 [nM]
Cc1c(-c2nn(Cc3ccc(Cl)cc3)c(=O)c3ccccc23)c2cc(Cl)ccc2n1CC(=O)O [Example 1, 2-(5-Chloro-3-(3-(4-chlorobenzyl)-4-oxo-3,4-dihydrophthalazin-1-yl)-2-methyl-1H-indol-1-yl)acetic acid]	15
Cc1c(-c2nn(Cc3ccc(Cl)c(F)c3)c(=O)c3ccccc23)c2cc(Cl)ccc2n1CC(=O)O [Example 2, 2-(5-Chloro-3-(3-(4-chloro-3-fluorobenzyl)-4-oxo-3,4-dihydrophthalazin-1-yl)-2-methyl-1H-indol-1-yl)acetic acid]	18
Cc1c(-c2nn(Cc3ccc(C(F)(F)F)c(F)c3)c(=O)c3ccccc23)c2cc(Cl)ccc2n1CC(=O)O [Example 3, 2-(5-Chloro-3-(3-(3-fluoro-4-(trifluoromethyl)benzyl)-4-oxo-3,4-dihydrophthalazin-1-yl)-2-methyl-1H-indol-1-yl)acetic acid]	58
Cc1c(-c2nn(Cc3ccc(Cl)cc3)c(=O)c3ccccc23)c2cc(F)ccc2n1CC(=O)O [Example 4, 2-(3-(3-(4-Chlorobenzyl)-4-oxo-3,4-dihydropthalazin-1-yl)-5-fluoro-2-methyl-1H-indol-1-yl)acetic acid]	9
Cc1c(-c2nn(Cc3ccc(Cl)c(F)c3)c(=O)c3ccccc23)c2cc(F)ccc2n1CC(=O)O [Example 5, 2-(3-(3-(4-Chloro-3-fluorobenzyl)-4-oxo-3,4-dihydrophthalazin-1-yl)-5-fluoro-2-methyl-1H-indol-1-yl)acetic acid]	10
Cc1c(-c2ccc(=O)n(Cc3ccccc3)n2)c2cc(Cl)cc(F)c2n1CC(=O)O [Example 10, 2-(3-(1-Benzyl-6-oxo-1,6-dihydropyridazin-3-yl)-5-chloro-7-fluoro-2-methyl-1H-indol-1-yl)acetic acid]	106
COc1ccc2c(c1)c(-c1nn(Cc3ccccc3)c(=O)c3ccccc13)c(C)n2CC(=O)O [Example 16, 2-(3-(3-Benzyl-4-oxo-3,4-dihydrophthalazin-1-yl)-5-methoxy-2-methyl-1H-indol-1-yl)acetic acid]	31
Cc1c(Cc2ccc(=O)n(Cc3ccc(F)cc3F)c2)c2cc(F)ccc2n1CC(=O)O [Example 20, 2-(3-((1-(2,4-Difluorobenzyl)-6-oxo-1,6-dihydropyridin-3-yl)methyl)-5-fluoro-2-methyl-1H-indol-1-yl)acetic acid]	5
Cc1c(Cc2ccc(=O)n(Cc3cc(F)c(F)cc3F)c2)c2cc(F)ccc2n1CC(=O)O [Example 23, 2-(5-Fluoro-2-methyl-3-((6-oxo-1-(2,4,5-trifluorobenzyl)-1,6-dihydro-pyridin-3-yl)methyl)-1H-indol-1-yl)acetic acid]	17
Cc1c(Cc2ccc(=O)n(Cc3cc(F)c(F)cc3F)c2)c2ccccc2n1CC(=O)O [Example 24]	28
Cc1c(Cc2ccc(=O)n(Cc3cc(F)ccc3F)c2)c2ccccc2n1CC(=O)O [Example 25, 2-(3-((1-(2,5-Difluorobenzyl)-6-oxo-1,6-dihydropyridin-3-yl)methyl)-2-methyl-1H-indol-1-yl)acetic acid]	7
Cc1c(Cc2ccc(=O)n(Cc3cc(F)ccc3F)c2)c2cc(F)ccc2n1CC(=O)O [Example 26, 2-(3-((1-(2,5-Difluorobenzyl)-6-oxo-1,6-dihydropyridin-3-yl)methyl)-5-fluoro-2-methyl-1H-indol-1-yl)acetic acid]	8

Continued by falling IC50, values first:

IC50 [nM]	SMILES
2780	Cc1c(-c2ccc(=O)n(Cc3ccccc3)n2)c2cc(S(C)(=O)=O)cc(F)c2n1CC(=O)O [Example 17, 2-(3-(1-Benzyl-6-oxo-1,6-dihydropyridazin-3-yl)-7-fluoro-2-methyl-5-(methylsulfonyl)-1H-indol-1-yl)acetic acid]
765	Cc1c(Cc2ccc(=O)n(C(C)C)c2)c2ccccc2n1CC(=O)O [Example 22]
214	Cc1c(-c2nn(Cc3ccccc3)c(=O)c3ccccc23)c2cc(S(C)(=O)=O)cc(F)c2n1CC(=O)O [Example 15, 2-(3-(3-Benzyl-4-oxo-3,4-dihydrophthalazin-1-yl)-7-fluoro-2-methyl-5-(methylsulfonyl)-1H-indol-1-yl)acetic acid]
192	COc1ccc2c(c1)c(-c1ccc(=O)n(Cc3ccccc3)n1)c(C)n2CC(=O)O [Example 18, 2-(3-(1-Benzyl-6-oxo-1,6-dihydropyridazin-3-yl)-5-methoxy-2-methyl-1H-indol-1-yl)acetic acid]
169	Cc1c(-c2nn(Cc3ccccc3)c(=O)c3ccccc23)c2cc(S(C)(=O)=O)cc(Cl)c2n1CC(=O)O [Example 14, 2-(3-(3-Benzyl-4-oxo-3,4-dihydrophthalazin-1-yl)-7-chloro-2-methyl-5-(methylsulfonyl)-1H-indol-1-yl)acetic acid]
109	COc1ccc2c(c1)c(-c1nn(C(C)C)c(=O)c3ccccc13)c(C)n2CC(=O)O [Example 19, 2-(3-(3-Isopropyl-4-oxo-3,4-dihydrophthalazin-1-yl)-5-methoxy-2-methyl-1H-indol-1-yl)acetic acid]
39	Cc1c(-c2nn(Cc3ccccc3)c(=O)c3ccccc23)c2cc(Cl)cc(F)c2n1CC(=O)O [Example 11, 2-(3-(3-Benzyl-4-oxo-3,4-dihydrophthalazin-1-yl)-5-chloro-7-fluoro-2-methyl-1H-indol-1-yl)acetic acid]
23	Cc1c(-c2nn(Cc3ccc(C(F)(F)F)c(F)c3)c(=O)c3ccccc23)c2cc(F)ccc2n1CC(=O)O [Example 6, 2-(5-Fluoro-3-(3-(3-fluoro-4-(trifluoromethyl)benzyl)-4-oxo-3,4-dihydrophthalazin-1-yl)-2-methyl-1H-indol-1-yl)acetic acid]
21	Cc1c(-c2ccc(=O)n(Cc3ccc(Cl)cc3)n2)c2cc(Cl)ccc2n1CC(=O)O [Example 9, 2-(5-Chloro-3-(1-(4-chlorobenzyl)-6-oxo-1,6-dihydropyridazin-3-yl)-2-methyl-1H-indol-1-yl)acetic acid]
18	Cc1c(Cc2ccc(=O)n(Cc3ccc(F)cc3F)c2)c2ccccc2n1CC(=O)O [Example 21, 2-(3-((1-(2,4-Difluorobenzyl)-6-oxo-1,6-dihydropyridin-3-yl)methyl)-2-methyl-1H-indol-1-yl)acetic acid]
6	Cc1c(-c2ccc(=O)n(Cc3ccc(Cl)c(F)c3)n2)c2cc(F)ccc2n1CC(=O)O [Example 12, 2-(3-(1-(4-chloro-3-fluorobenzyl)-6-oxo-1,6-dihydropyridazin-3-yl)-5-fluoro-2-methyl-1H-indol-1-yl)acetic acid]
5	Cc1c(-c2ccc(=O)n(Cc3ccc(Cl)c(F)c3)n2)c2cc(Cl)ccc2n1CC(=O)O [Example 8, 2-(5-Chloro-3-(1-(4-chloro-3-fluorobenzyl)-6-oxo-1,6-dihydropyridazin-3-yl)-2-methyl-1H-indol-1-yl)acetic acid]
5	Cc1c(-c2ccc(=O)n(Cc3ccc(Cl)cc3)n2)c2cc(F)ccc2n1CC(=O)O [Example 13, 2-(3-(1-(4-Chlorobenzyl)-6-oxo-1,6-dihydropyridazin-3-yl)-5-fluoro-2-methyl-1H-indol-1-yl)acetic acid]
4	Cc1c(-c2nn(Cc3ccc(Cl)cc3Cl)c(=O)c3ccccc23)c2cc(F)ccc2n1CC(=O)O [Example 7, 2-(3-(3-(2,4-dichlorobenzyl)-4-oxo-3,4-dihydrophthalazin-1-yl)-5-fluoro-2-methyl-1H-indol-1-yl)acetic acid]
